Laboratory results from the NIST ThermoML archive (doi:10.1021/je300678r).
“And” between values parts separate entries of the source, which are not always exact repeats. Equal values may be shown once.

Key:
[1] = refractive index (Na D-line) (dimensionless); details: 101.33 kPa, Liquid, Standard Abbe refractometry
[2] = Liquid; for mass density: 101.33 kPa, Vibrating tube method; for vapor or sublimation pressure: Ebulliometric method (Recirculating still)
[3] = excess molar enthalpy (molar enthalpy of mixing); xn = mol fraction of the nth substance listed; details: 298.15 K, 101 kPa, Liquid, Flow calorimetry
[4] = refractive index (Na D-line) (dimensionless); xn = mol fraction of the nth substance listed; details: 298.15 K, 101 kPa, Liquid, Standard Abbe refractometry
[5] = xn = mol fraction of the nth substance listed; details: 298.15 K, 101 kPa, Liquid, Vibrating tube method

CCCCC(CC)CO (centres undefined) [2-ethyl-1-hexanol]
Details	mass density [kg/m3]	refractive index	vapor or sublimation pressure [kPa]
[1], 297.86 K	–	1.4295	–
[1], 298.15 K	–	1.42949	–
[2], 297.86 K	828.8	–	–
[2], 389.76 K	–	–	9.88
[2], 407.11 K	–	–	19.88
[2], 418.24 K	–	–	30.03
[2], 426.95 K	–	–	39.67
[2], 430.79 K	–	–	45.05
[2], 433.51 K	–	–	49.22
[2], 437.24 K	–	–	55.52
[2], 439.49 K	–	–	59.61
[2], 442.12 K	–	–	64.64
[2], 445 K	–	–	70.55
[2], 447.04 K	–	–	75.01
[2], 449.02 K	–	–	79.55
[2], 451.06 K	–	–	84.49
[2], 456.77 K	–	–	99.44
[2], 457.83 K	–	–	102.2
[2], 458.23 K	–	–	102.91
[2], 458.24 K	–	–	103.26

CCCCC(CC)CO (centres undefined) [2-ethyl-1-hexanol] + CC(=O)CC(C)C
Details	excess molar enthalpy, [3]	mass density, [5]	refractive index, [4]
x2 = 0	–	–	1.42949
x2 = 0.0516	–	–	1.42806
x2 = 0.1009	0.132 kcal/mol	826.11 kg/m3	–
x2 = 0.1017	–	–	1.4266
x2 = 0.2001	0.236 kcal/mol	823.29 kg/m3	–
x2 = 0.2045	–	–	1.42351
x2 = 0.3019	0.313 kcal/mol	820.27 kg/m3	–
x2 = 0.397	–	–	1.41723
x2 = 0.4014	0.361 kcal/mol	817.23 kg/m3	–
x2 = 0.5009	0.38 kcal/mol	813.99 kg/m3	–
x2 = 0.6018	0.371 kcal/mol	810.67 kg/m3	–
x2 = 0.605	–	–	1.41
x2 = 0.7019	0.329 kcal/mol	807.13 kg/m3	–
x2 = 0.7986	–	–	1.40249
x2 = 0.8009	0.258 kcal/mol and 0.257 kcal/mol	803.8 kg/m3 and 803.62 kg/m3	–
x2 = 0.9004	0.149 kcal/mol	800.06 kg/m3	–
x2 = 0.9051	–	–	1.39848
x2 = 0.9491	–	–	1.39587

CCC(C)(C)O [2-methylbutan-2-ol]
Details	mass density [kg/m3]	refractive index	vapor or sublimation pressure [kPa]
[1], 297.85 K	–	1.4025	–
[1], 298.15 K	–	1.40253	–
[2], 297.85 K	805.3	–	–
[2], 336.04 K	–	–	19.84
[2], 344.75 K	–	–	29.94
[2], 351.29 K	–	–	39.96
[2], 356.6 K	–	–	49.95
[2], 361.18 K	–	–	60.05
[2], 365.4 K	–	–	70.74
[2], 368.07 K	–	–	78.27
[2], 368.16 K	–	–	78.09
[2], 368.75 K	–	–	80.2
[2], 371.97 K	–	–	90.23
[2], 375.14 K	–	–	100.74
[2], 375.38 K	–	–	101.88
[2], 375.53 K	–	–	102.61

CCC(C)(C)O [2-methylbutan-2-ol] + CC(=O)CC(C)C
Details	excess molar enthalpy, [3] [kcal/mol]	mass density, [5]	refractive index, [4]
x2 = 0	–	–	1.40253
x2 = 0.0598	–	–	1.40217
x2 = 0.1012	0.106	804.47 kg/m3	–
x2 = 0.1216	–	–	1.40156
x2 = 0.2017	0.196	803 kg/m3	–
x2 = 0.2171	–	–	1.40043
x2 = 0.3013	0.263	801.45 kg/m3	–
x2 = 0.4017	0.307	800.01 kg/m3 and 800 kg/m3	–
x2 = 0.4095	–	–	1.39811
x2 = 0.5008	0.327	798.73 kg/m3	–
x2 = 0.5982	–	–	1.39615
x2 = 0.6006	0.321	797.67 kg/m3	–
x2 = 0.7009	0.288	796.87 kg/m3	–
x2 = 0.8017	0.227	796.33 kg/m3	–
x2 = 0.8202	–	–	1.39439
x2 = 0.9007	0.132	796.12 kg/m3	–
x2 = 0.9177	–	–	1.39383
x2 = 0.9563	–	–	1.39364

CC(=O)CC(C)C [4-methylpentan-2-one]
Details	mass density [kg/m3]	refractive index	vapor or sublimation pressure [kPa]
[1], 297.84 K	–	1.3935	–
[1], 298.15 K	–	1.39346 and 1.39352	–
[2], 297.84 K	796.4	–	–
[2], 340.18 K	–	–	19.35
[2], 340.66 K	–	–	19.78
[2], 343.42 K	–	–	21.92
[2], 351.55 K	–	–	30.01
[2], 352.71 K	–	–	31.12
[2], 353.11 K	–	–	31.71
[2], 359.22 K	–	–	39.35
[2], 359.39 K	–	–	39.63
[2], 359.58 K	–	–	40.05
[2], 362.88 K	–	–	44.7
[2], 365.9 K	–	–	49.68
[2], 366.61 K	–	–	50.66
[2], 368.06 K	–	–	53.01
[2], 368.07 K	–	–	53.42
[2], 368.14 K	–	–	53.26
[2], 368.15 K	–	–	53.24
[2], 368.7 K	–	–	54.29
[2], 371.34 K	–	–	59.43
[2], 371.64 K	–	–	59.75
[2], 371.91 K	–	–	60.19
[2], 374.37 K	–	–	65.18
[2], 376.26 K	–	–	69.16
[2], 376.49 K	–	–	69.98
[2], 378.8 K	–	–	74.83
[2], 380.65 K	–	–	79.56
[2], 381.06 K	–	–	80.16
[2], 382.66 K	–	–	84.16
[2], 384.99 K	–	–	90.58
[2], 388.07 K	–	–	98.7
[2], 388.31 K	–	–	99.4
[2], 388.63 K	–	–	100.35
[2], 388.65 K	–	–	100.41
[2], 389.06 K	–	–	101.85
[2], 389.49 K	–	–	102.78

CC(=O)CC(C)C [4-methylpentan-2-one] + CCC(C)(C)O
Details	refractive index
[4], x1 = 1	1.39352

CC(=O)CC(C)C [4-methylpentan-2-one] + CCC(C)O
Details	excess molar enthalpy, [3]	mass density, [5]	refractive index, [4]
x1 = 0.0502	–	–	1.39473
x1 = 0.1005	–	–	1.39443
x1 = 0.1009	0.161 kcal/mol	800.64 kg/m3	–
x1 = 0.2005	–	–	1.39392
x1 = 0.2009	0.272 kcal/mol	799.14 kg/m3	–
x1 = 0.3007	0.344 kcal/mol	798.02 kg/m3	–
x1 = 0.3998	–	–	1.39335
x1 = 0.4015	0.384 kcal/mol and 0.385 kcal/mol	797.16 kg/m3 and 797.13 kg/m3	–
x1 = 0.5008	0.396 kcal/mol	796.55 kg/m3	–
x1 = 0.602	–	–	1.39309
x1 = 0.6021	0.38 kcal/mol	796.12 kg/m3	–
x1 = 0.7004	0.336 kcal/mol	795.9 kg/m3	–
x1 = 0.7988	–	–	1.39313
x1 = 0.7998	0.262 kcal/mol	795.84 kg/m3	–
x1 = 0.8985	–	–	1.39325
x1 = 0.8998	0.155 kcal/mol	795.97 kg/m3	–
x1 = 0.9508	–	–	1.39335
x1 = 1	–	–	1.39346

CC(=O)CC(C)C [4-methylpentan-2-one] + CCCCC(CC)CO
Details	refractive index
[4], x1 = 1	1.39346

CCC(C)O (centres undefined) [butan-2-ol]
Details	mass density, 297.83 K [kg/m3]	refractive index, 297.83 K	refractive index, 298.15 K	vapor or sublimation pressure, 358.16 K [kPa]	vapor or sublimation pressure, 367.97 K	vapor or sublimation pressure, 372.43 K [kPa]	vapor or sublimation pressure, 372.71 K [kPa]
[1]	–	1.3951	1.39512	–	–	–	–
[2]	802.7	–	–	57.27	84.94 kPa and 85.16 kPa	100.62	101.88

CCC(C)O (centres undefined) [butan-2-ol] + CC(=O)CC(C)C
Details	refractive index
[4], x2 = 0	1.39512
